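Abbreviation: GI50, concentration required for 50% inhibition of growth. At the TGI there is no net growth.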
Key:
Assay in all cases: NCI-60 cell line screen, 384-well format
HOP-62 NSCLC = test system: HOP-62 NSCLC
SNB-75 CNS = test system: SNB-75 CNS
NCI-H460 NSCLC = test system: NCI-H460 NSCLC
IGROV1 ovarian = test system: IGROV1 ovarian
UACC-62 melanoma = test system: UACC-62 melanoma
ACHN renal = test system: ACHN renal
RXF 393 renal = test system: RXF 393 renal
MDA-MB-435 melanoma = test system: MDA-MB-435 melanoma
OVCAR-8 ovarian = test system: OVCAR-8 ovarian
SF-539 CNS = test system: SF-539 CNS
CAKI-1 renal = test system: CAKI-1 renal
HCT-15 colon = test system: HCT-15 colon
U251 glioblastoma = test system: U251 glioblastoma
RPMI-8226 leukemia = test system: RPMI-8226 leukemia
SF-268 CNS = test system: SF-268 CNS
OVCAR-4 ovarian = test system: OVCAR-4 ovarian
HOP-92 NSCLC = test system: HOP-92 NSCLC
NCI-H23 lung = test system: NCI-H23 lung
OVCAR-5 ovarian = test system: OVCAR-5 ovarian
SK-OV-3 ovarian = test system: SK-OV-3 ovarian
KM12 colon = test system: KM12 colon
NCI-H522 lung = test system: NCI-H522 lung
T-47D breast = test system: T-47D breast
UACC-257 melanoma = test system: UACC-257 melanoma
DU-145 prostate = test system: DU-145 prostate
MALME-3M melanoma = test system: MALME-3M melanoma
NCI/ADR-RES ovarian = test system: NCI/ADR-RES ovarian
NCI-H322M lung = test system: NCI-H322M lung
SK-MEL-28 melanoma = test system: SK-MEL-28 melanoma
SK-MEL-5 melanoma = test system: SK-MEL-5 melanoma
SW-620 colon = test system: SW-620 colon
M14 melanoma = test system: M14 melanoma
SNB-19 CNS = test system: SNB-19 CNS
MOLT-4 leukemia = test system: MOLT-4 leukemia
OVCAR-3 ovarian = test system: OVCAR-3 ovarian
SK-MEL-2 melanoma = test system: SK-MEL-2 melanoma
BT-549 breast = test system: BT-549 breast
CCRF-CEM leukemia = test system: CCRF-CEM leukemia
HT29 colon = test system: HT29 colon
SR leukemia = test system: SR leukemia
PC-3 prostate = test system: PC-3 prostate
HS 578T breast = test system: HS 578T breast
SF-295 CNS = test system: SF-295 CNS
MDA-MB-468 breast = test system: MDA-MB-468 breast
SN12C renal = test system: SN12C renal
HL-60(TB) leukemia = test system: HL-60(TB) leukemia
NCI-H226 lung = test system: NCI-H226 lung
MDA-MB-231 breast = test system: MDA-MB-231 breast
TK-10 renal = test system: TK-10 renal
MCF7 breast = test system: MCF7 breast
EKVX NSCLC = test system: EKVX NSCLC
COLO 205 colon = test system: COLO 205 colon
A549 NSCLC = test system: A549 NSCLC
786-0 renal = test system: 786-0 renal

Question: What does the source list for `NC(=S)N/N=C/c1ncccc1N`?
Answer: GI50 (HOP-62 NSCLC): 357 nM; TGI (HOP-62 NSCLC): 1410 nM; GI50 (SNB-75 CNS): 344 nM; TGI (SNB-75 CNS): 2900 nM; GI50 (NCI-H460 NSCLC): 413 nM; TGI (NCI-H460 NSCLC): 1570 nM; GI50 (IGROV1 ovarian): 816 nM; TGI (IGROV1 ovarian): 20500 nM; GI50 (UACC-62 melanoma): 249 nM; TGI (UACC-62 melanoma): 581 nM; GI50 (ACHN renal): 281 nM; TGI (ACHN renal): 585 nM; GI50 (RXF 393 renal): 2080 nM; TGI (RXF 393 renal): 23600 nM; GI50 (MDA-MB-435 melanoma): 7800 nM; TGI (MDA-MB-435 melanoma): > 100000 nM; GI50 (OVCAR-8 ovarian): 241 nM; TGI (OVCAR-8 ovarian): 499 nM; GI50 (SF-539 CNS): 212 nM; TGI (SF-539 CNS): 451 nM; GI50 (CAKI-1 renal): 494 nM; TGI (CAKI-1 renal): 15800 nM; GI50 (HCT-15 colon): 3470 nM; TGI (HCT-15 colon): > 100000 nM; GI50 (U251 glioblastoma): 314 nM; TGI (U251 glioblastoma): 855 nM; GI50 (RPMI-8226 leukemia): 203 nM; TGI (RPMI-8226 leukemia): 373 nM; GI50 (SF-268 CNS): 318 nM; TGI (SF-268 CNS): 789 nM; GI50 (OVCAR-4 ovarian): 4390 nM; TGI (OVCAR-4 ovarian): 9350 nM; GI50 (HOP-92 NSCLC): 470 nM; TGI (HOP-92 NSCLC): 21800 nM; GI50 (NCI-H23 lung): 257 nM; TGI (NCI-H23 lung): 518 nM; GI50 (OVCAR-5 ovarian): 2690 nM; TGI (OVCAR-5 ovarian): 8730 nM; GI50 (SK-OV-3 ovarian): 2670 nM; TGI (SK-OV-3 ovarian): 7610 nM; GI50 (KM12 colon): 3520 nM; TGI (KM12 colon): 24800 nM; GI50 (NCI-H522 lung): 561 nM; TGI (NCI-H522 lung): 7760 nM; GI50 (T-47D breast): 1330 nM; TGI (T-47D breast): 7190 nM; GI50 (UACC-257 melanoma): 3170 nM; TGI (UACC-257 melanoma): 15000 nM; GI50 (DU-145 prostate): 584 nM; TGI (DU-145 prostate): 3630 nM; GI50 (MALME-3M melanoma): 378 nM; TGI (MALME-3M melanoma): 933 nM; GI50 (NCI/ADR-RES ovarian): 1440 nM; TGI (NCI/ADR-RES ovarian): 3040 nM; GI50 (NCI-H322M lung): 7280 nM; TGI (NCI-H322M lung): > 100000 nM; GI50 (SK-MEL-28 melanoma): 2670 nM; TGI (SK-MEL-28 melanoma): 41600 nM; GI50 (SK-MEL-5 melanoma): 530 nM; TGI (SK-MEL-5 melanoma): 1960 nM; GI50 (SW-620 colon): 697 nM; TGI (SW-620 colon): 21400 nM; GI50 (M14 melanoma): 586 nM; TGI (M14 melanoma): 1870 nM; GI50 (SNB-19 CNS): 709 nM; TGI (SNB-19 CNS): 4140 nM; GI50 (MOLT-4 leukemia): 194 nM; TGI (MOLT-4 leukemia): 342 nM; GI50 (OVCAR-3 ovarian): 532 nM; TGI (OVCAR-3 ovarian): 8640 nM; GI50 (SK-MEL-2 melanoma): 450 nM; TGI (SK-MEL-2 melanoma): 772 nM; GI50 (BT-549 breast): 675 nM; TGI (BT-549 breast): 3940 nM; GI50 (CCRF-CEM leukemia): 291 nM; TGI (CCRF-CEM leukemia): 622 nM; GI50 (HT29 colon): 2210 nM; TGI (HT29 colon): 43400 nM; GI50 (SR leukemia): 192 nM; TGI (SR leukemia): 337 nM; GI50 (PC-3 prostate): 10600 nM; TGI (PC-3 prostate): 28200 nM; GI50 (HS 578T breast): 654 nM; TGI (HS 578T breast): > 100000 nM; GI50 (SF-295 CNS): 1100 nM; TGI (SF-295 CNS): 3860 nM; GI50 (MDA-MB-468 breast): 1410 nM; TGI (MDA-MB-468 breast): 3560 nM; GI50 (SN12C renal): 730 nM; TGI (SN12C renal): 3140 nM; GI50 (HL-60(TB) leukemia): 233 nM; TGI (HL-60(TB) leukemia): 428 nM; GI50 (NCI-H226 lung): 1700 nM; TGI (NCI-H226 lung): 3450 nM; GI50 (MDA-MB-231 breast): 616 nM; TGI (MDA-MB-231 breast): 11900 nM; GI50 (TK-10 renal): 8170 nM; TGI (TK-10 renal): > 100000 nM; GI50 (MCF7 breast): 487 nM; TGI (MCF7 breast): 10800 nM; GI50 (EKVX NSCLC): 3280 nM; TGI (EKVX NSCLC): 18300 nM; GI50 (COLO 205 colon): 879 nM; TGI (COLO 205 colon): 2230 nM; GI50 (A549 NSCLC): 1450 nM; TGI (A549 NSCLC): > 100000 nM; GI50 (786-0 renal): 242 nM; TGI (786-0 renal): 540 nM

— PubChem BioAssay (NCI)
